From the NIST ThermoML archive (doi:10.1016/j.fluid.2012.08.005)

Assay: xn = mol fraction of the nth substance listed
Settings: 101 kPa, Liquid, Vibrating tube method

CCCCCC [hexane] + c1ccoc1
x2 = 0
Settings	mass density [kg/m3]
293.15 K	660.8
298.15 K	657
303.15 K	653.3

c1ccoc1 [furan] + Cc1ccccc1
mass density [kg/m3]
Settings	x1 = 0.1	x1 = 0.199	x1 = 0.387	x1 = 0.507	x1 = 0.591	x1 = 0.761	x1 = 0.89	x1 = 1
293.15 K	873.3	878.9	889.8	897.7	903.8	917.5	929.2	939.8
298.15 K	869.5	875	885.6	893.2	899.1	912.4	923.7	934
303.15 K	865.9	871.2	881.5	888.9	894.6	907.5	918.4	928.3

Cc1ccccc1 [toluene] + c1ccoc1
x2 = 0
Settings	mass density [kg/m3]
293.15 K	868.2
298.15 K	864.5
303.15 K	861

c1ccoc1 [furan] + CCCCCC
mass density [kg/m3]
Settings	x1 = 0.12	x1 = 0.199	x1 = 0.365	x1 = 0.511	x1 = 0.623	x1 = 0.786	x1 = 0.908	x1 = 1
293.15 K	677.8	690.2	721.4	755.2	786.2	841.2	891.9	939.8
298.15 K	673.9	686.1	717	750.5	781.4	835.9	886.4	934
303.15 K	670	682.2	712.8	746	776.6	830.8	881	928.3
